Assay results from EP2769738B1, “Conjugated TLR7 and/or TLR8 and TLR2 polycationic agonists” (Invivogen, priority 2013, dated 2014).
“And” between values parts separate entries of the source, which are not always exact repeats. Equal values may be shown once.

Test: Determination of nanoparticle (lipoplex) size by dynamic light scattering
Format: physicochemical
Conditions: ratio 3:24 (w:w); for Conformity (C)/ Non-conformity (NC) / Mean Diameter (nm): complexes with pDNA; for Mean Diameter (nm): dynamic light scattering at 25°C; for Mean Diameter (nm) / PDI: triplicate measurements; for PDI: polydispersity index of complexes with pDNA, 25°C
Protocol: • 1. Preparative HPLC Method: Unless otherwise indicated, the compounds described herein were purified by RP-MPLC ARMEN® Spot Flash Liquid Chromatography (ARMEN Instrument, Saint Ave, France) on a preparative column (SVF D26) packed with 25-40 µm C18 resin (Merck chimie SAS), by applying a linear gradient of 0-10% MeCN in NH4OAc (10 mM) solution (pH = 9) over 60 min at a 15 mL/min flow rate. The purification was monitored at 254 nm. Suitable fractions were pooled and lyophilised. • 2. Proton NMR Spectra: Unless otherwise indicated, all ^1H NMR spectra were run on a Bruker series 300 MHz instrument. Where so characterized, all observed protons are reported as parts-per-million (ppm) downfield from tetramethylsilane (TMS) or other internal reference in the appropriate solvent indicated. NMR spectra were recorded on a Brucker 300 spectrometer. For ^1H (300 MHz) spectra δ values were referenced to CDCI3-d1 (7.26 ppm), DMSO- d6 (2.50 ppm), D2O-d2 (4.79 ppm) or MeOD-d4 (3.31 ppm). The peak patterns are indicated as follows: s: singlet, sl: large singlet, d: doublet, t: triplet, q: quartet, m: multiplet. • 3. Mass Spectra (MS): Analyses were run on an Agilent Model 6130 quadrupole MS. Unless otherwise indicated, all mass spectral data for starting materials, intermediates and/or exemplary compounds are reported as mass/charge (m/z), having an (M+H)^+ molecular ion. The molecular ion reported was obtained by electrospray detection method (commonly referred to as an ESI MS). Compounds having an isotopic atom, such as bromine and the like, are generally reported according to the detected isotopic pattern, as appreciated by those skilled in the art. • 4. Particle size: Particle size was determined using a Malvern Nanosizer (Malvern, Worcestershire, UK) and Malvern ZETASIZER.RTM. (Malvern, Worcestershire, UK). • 5. Naming Convention The compounds disclosed and described herein have been named using the naming convention provided with Chem-Draw Ultra 11.0 software, available in Chem. Office. In some instances, compounds were named with the term "spermine" inserted where appropriate. For example, where the spermine is substituted with Boc, "N1,N5,N10-TriBoc-spermine" is added to the Chem-Draw nomenclature in the appropriate place. Chem-Draw utilizes the ISIS Draw software compound naming convention, as appreciated by those skilled in the art.
For pDNA:TLR7-TLR2 polyamine molecules complexes, a ratio pDNA:TLR7-TLR2 polyamine molecules of 3:24 (w:w) was prepared in serum-free culture medium or in 5% glucose. The TLR7-TLR2 conjugated compound of interest was prediluted in serum-free culture medium or in 5% glucose and incubated for 5 minutes at room temperature, prior to the addition of an endotoxin-free, salt-free preparation of pDNA. In these experiments, the pBsr2pCpGLacZh plasmid was used in the pDNA:TLR7-TLR2 polyamine molecule complexes. The pDNA:TLR7-TLR2 polyamine molecule mixtures were incubated at room temperature for 30 minutes to allow the formation of the complex. The control used in these experiments was the cationic lipid transfection agent LyoVec™ (InvivoGen) prepared in a similar manner.
In order to confirm that TLR7-TLR2 polyamine molecules complex DNA, lipoplex size was determined. The physical characterization of complex was achieved by dynamic light scattering using the analytical equipment for laser diffraction Zetasizer Nano-ZS (Malvern). pDNA:TLR7-TLR2 polyamine molecule complexes were prepared as described above. Subsequently, 50µl of pDNA: TLR7-TLR2 polyamine molecule complexes were placed into a disposable sizing cuvette and measurements were made under conditions defined according to manufacturer's instructions. The measurements were made at 25°C in triplicate and a size distribution report was obtained. […]

SMILES	Conformity (C)/ Non-conformity (NC)	Mean Diameter (nm)	PDI
CCCCCCCCCCCCCCCC(=O)OCC(CSC[C@H](N)C(=O)N[C@@H](CCCCNC(=O)CNC(=O)c1ccc(Cn2c(O)nc3c(N)nc(NCCCC)nc32)cc1)C(=O)NCCCNCCCCNCCCN)OC(=O)CCCCCCCCCCCCCCC (stereo partly drawn) [CL475, (6R,9S)-6,23-diamino-9-(4-(2-(4-((6-amino-2-(butylamino)-8-hydroxy-9H-purin-9-yl)methyl)benzamido)acetamido)butyl)-7,10-dioxo-4-thia-8,11,15,20-tetraazatrico sane-1,2-diyl dipalmitate]	C (ranged between 140 and 200 nm in diameter were considered to show conformity)	145,9 nm and 155,8 nm and 153,5 nm	0,193 and 0,176 and 0,158
CCCCCCCCCCCCCCCC(=O)OCC(CSC[C@H](N)C(=O)NCCCC[C@H](NC(=O)c1ccc(Cn2c(O)nc3c(N)nc(NCCCC)nc32)cc1)C(=O)NCCCNCCCCNCCCN)OC(=O)CCCCCCCCCCCCCCC (stereo partly drawn) [CL486, (6R,13S)-6,27-diamino-13-(4-((6-amino-2-(butylamino)-8-hydroxy-9H-purin-9-yl)methyl)benzamido)-7,14-dioxo-4-thia-8,15,19,24-tetraazaheptacosane-1,2-diyl dipalmitate]	C (ranged between 140 and 200 nm in diameter were considered to show conformity)	209,2 nm and 179,7 nm and 202,0 nm	0,236 and 0,232 and 0,234
CCCCCCCCCCCCCCCC(=O)OCC(CSC[C@H](N)C(=O)NCCCC[C@H](NC(=O)CNC(=O)c1ccc(Cn2c(O)nc3c(N)nc(NCCCC)nc32)cc1)C(=O)NCCCNCCCCNCCCN)OC(=O)CCCCCCCCCCCCCCC (stereo partly drawn) [CL487, (6R,13S)-6,27-diamino-13-(2-(4-((6-amino-2-(butylamino)-8-hydroxy-9H-purin-9-yl)methyl)benzamido)acetamido)-7,14-dioxo-4-thia-8,15,19,24-tetraazaheptacosane-1,2-diyl dipalmitate]	C (ranged between 140 and 200 nm in diameter were considered to show conformity)	148,1 nm and 165,6 nm and 160,0 nm	0,23 and 0,255 and 0,241
CCCCCCCCCCCCCCCC(=O)OCC(CSC[C@H](N)C(=O)N[C@@H](COC(=O)c1ccc(Cn2c(O)nc3c(N)nc(NCCCC)nc32)cc1)C(=O)NCCCNCCCCNCCCN)OC(=O)CCCCCCCCCCCCCCC (stereo partly drawn) [CL514, (6R,9S)-6,23-diamino-9-((4-((6-amino-2-(butylamino)-8-hydroxy-9H-purin-9-yl)methyl)benzoyloxy)methyl)-7,10-dioxo-4-thia-8,11,15,20-tetraazatricosane-1,2-diyl dipalmitate]	C (ranged between 140 and 200 nm in diameter were considered to show conformity)	249,1 nm and 309,6 nm and 258,3 nm	0,303 and 0,354 and 0,372
CCCCCCCCCCCCCCCC(=O)OCC(CSC[C@H](N)C(=O)N[C@@H](CCC(=O)NCCCNCCCCNCCCN)C(=O)Nc1ccc(Cn2c(O)nc3c(N)nc(NCCCC)nc32)cc1)OC(=O)CCCCCCCCCCCCCCC (stereo partly drawn) [CL527, (6R,9S)-6,25-diamino-9-(4-((6-amino-2-(butylamino)-8-hydroxy-9H-purin-9-yl)methyl)phenylcarbamoyl)-7,12-dioxo-4-thia-8,13,17,22-tetraazapentacosane-1,2-diyl dipalmitate]	C (ranged between 140 and 200 nm in diameter were considered to show conformity)	175,1 nm and 156,9 nm and 168,3 nm	0,253 and 0,239 and 0,258
CCCCCCCCCCCCCCCC(=O)OCC(CSC[C@H](N)C(=O)NCCCNCCCCNCCCNC(=O)CNC(=O)c1ccc(Cn2c(O)nc3c(N)nc(NCCCC)nc32)cc1)OC(=O)CCCCCCCCCCCCCCC (stereo partly drawn) [CL553, (20R)-20-amino-1-(4-((6-amino-2-(butylamino)-8-hydroxy-9H-purin-9-yl)methyl)phenyl)-1,4,19-trioxo-22-thia-2,5,9,14,18-pentaazapentacosane-24,25-diyl dipalmitate]	C (ranged between 140 and 200 nm in diameter were considered to show conformity)	170.0 nm and 190.0 nm and 180,2 nm	0,226 and 0,230 and 0,237
